For orientation: inhibition means the change of the read-out against control, counted positive when it falls. As usually defined, the IC50 is the concentration at which inhibition is half-maximal.

Drawing on patent publication US5196427A, “3-aryl-4(3H) quinazolinone CCK antagonists and pharmaceutical formulations thereof” (Eli Lilly and Company, priority 1991, dated 1993), this text covers inhibition and IC50 for 35 molecules.

The target in assay [1] is T1, peripheral type CCK receptors in rat pancreas (Rattus norvegicus, UniProt P30551).
T1 construct: from tissue; host or cells: pancreas membranes of male Sprague-Dawley rats
T1 sequence (P30551 1-444): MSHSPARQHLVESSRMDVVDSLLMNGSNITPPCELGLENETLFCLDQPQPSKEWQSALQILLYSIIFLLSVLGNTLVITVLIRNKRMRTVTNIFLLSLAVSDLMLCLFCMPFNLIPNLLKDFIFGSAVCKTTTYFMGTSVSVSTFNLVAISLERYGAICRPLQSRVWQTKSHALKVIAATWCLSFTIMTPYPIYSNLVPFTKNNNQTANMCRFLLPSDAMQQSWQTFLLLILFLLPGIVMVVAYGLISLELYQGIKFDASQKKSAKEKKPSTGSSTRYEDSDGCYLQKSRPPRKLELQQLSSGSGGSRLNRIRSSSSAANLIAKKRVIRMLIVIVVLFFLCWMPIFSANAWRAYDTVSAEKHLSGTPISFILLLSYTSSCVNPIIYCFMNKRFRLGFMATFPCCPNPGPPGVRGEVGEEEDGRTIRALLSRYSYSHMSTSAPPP
As to the kind of experiment: Binding to peripheral type CCK receptors in rat pancreas (3H-L364,718). Conditions: read-out: Pancreas % inhibition in binding assay. Here is the method: Binding to peripheral type CCK receptors in rat pancreas was done according to the method of Chang et al. (Mol. Pharmacol. 30: 212-217, 1986) using ^3 H-L364, 718. Pancreas was obtained from male & Sprague-Dawley rats, 150-200 g, after decapitation, and dissected free from adipose and connective tissue. The tissue was homogenized in 30 volumes of 50 mM Tris buffer, pH 7.4 and centrifuged at 40,000 g for 10 min. The tissue pellet was washed by resuspension and centrifugation as described above. The final pellet was suspended in 500 volumes of assay buffer (50 mM Tris buffer, pH 7.4, 5 mM MgC2, 0.14 mg/ml bacitracin, and 5 mM dithiothreitol) to give a protein concentration of 30-60 μg/200 μl. Reagent volumes for the assay were the same as those used for CCK binding to brain membranes. […] The samples were incubated 1 hour at room temperature and then filtered as described for the CCK-brain receptor. Scintillation cocktail was added to the filters which were counted for radioactivity using a Micromedic Taurus automatic liquid scintillation counter.
Compound samples were prepared and IC-50 values were determined as described for the CCK-brain experiments. Non-specific binding was that amount left bound to the filters after adding 100 nM L-364,718.

For the next assay, the target named is T2, Brain CCK receptor (Mus musculus, UniProt P56481).
T2 construct: from tissue; host or cells: forebrain membranes of male CF-1 mice
T2 sequence (P56481 1-453): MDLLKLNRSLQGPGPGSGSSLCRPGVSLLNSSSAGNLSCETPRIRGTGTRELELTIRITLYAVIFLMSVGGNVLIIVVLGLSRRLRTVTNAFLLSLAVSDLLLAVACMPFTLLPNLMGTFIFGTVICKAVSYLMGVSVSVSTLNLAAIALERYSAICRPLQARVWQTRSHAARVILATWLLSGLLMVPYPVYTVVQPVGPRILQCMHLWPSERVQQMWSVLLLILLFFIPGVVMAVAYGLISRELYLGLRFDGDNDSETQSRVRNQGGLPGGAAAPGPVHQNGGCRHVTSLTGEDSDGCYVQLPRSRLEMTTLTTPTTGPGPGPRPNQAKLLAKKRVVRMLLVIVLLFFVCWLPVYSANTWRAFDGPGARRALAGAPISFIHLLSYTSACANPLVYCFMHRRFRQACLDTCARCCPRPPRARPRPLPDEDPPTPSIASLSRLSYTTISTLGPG
Kind of assay: Brain CCK receptor binding (mouse brain membranes, 125I-CCK-8 sulfate). Here is the method:
Brain CCK receptor binding was performed using mouse brain membranes according to the method of Chang and Lotti (Proc. Natl. Acad. Sci. 83: 4923-4926, 1986). Male CF-1 mice, 23-25 g were sacrificed by cervical dislocation, the forebrain removed and placed in ice cold 50 mM Tris buffer, pH 7.4. The tissue was homogenized in 100 volumes of the Tris buffer with a Brinkman Polytron or Tekmar Tissumizer and then centrifuged at 40,000 g for 10 min. Pellets were resuspended in Tris buffer, centrifuged as above and then resuspended in 100 volumes of assay buffer, pH 6.5 (20 mM N-2-hydroxyethyl-piperazine-N'-2-ethane sulfonic acid (HEPES), 1 mM ethylene glycol bis(2-aminoethyl ether-N,N,N',N'-tetraaceticacid) (EGTA), 5 mM MgCl2, 130 mM NaCl, and 0.25 mg/ml bacitracin). The binding assay consisted of 50 μL of compound (or buffer for total binding), 50 μL of ^125 I-CCK-8 sulfate (20 pM) (Amersham IM-159), 200 μL of assay buffer and 200 μL of homogenate (80-120 μg protein). The samples were incubated at room temperature (25°) for 2 hours, and they were then filtered through GF/B glass fiber filters (soaked in wash buffer for 2 hours before use) using a 48 well Brandel cell harvester designed for receptor binding. The filters were washed twice with 3 ml of 50 mM Tris buffer, pH 7.4, containing 0.01% BSA and then counted for radioactivity in plastic tubes with a Micromedic 10/600 automatic gamma counter.
Compounds were dissolved in dimethyl sulfoxide (DMSO) at a concentration of 10 mM and then further diluted with assay buffer. […] IC-50 values of displacement curves were determined using 7 concentrations of compound and were calculated using the ALLFIT computer program of DeLean, Munson and Rodbard (Am. J. Physiol. 235: E97-E102, 1978). Non-specific binding was determined as the displacement of the radioligand by 100 nM CCK-8 sulfate.

[2] abbreviates: mouse brain membranes, Mean ± SEM, n = 3, values without SEM n = 1, read-out: Brain IC50.

Each structure is given as a SMILES string. Read-outs that look alike come from different tables or passages of the source.

`O=c1c2ccccc2nc(CCc2c[nH]c3ccccc23)n1-c1ccccc1` [Example 1, 2-[2-(3-indolyl)ethyl]-3-phenyl-4-(3H)quinazolinone]: the inhibition at 10 µM in assay [1] worked out at 37%. Further, the IC50 at Brain CCK receptor (setting [2]) turned out to be 670 ± 150 nM. With `CC(C)Oc1cccc(-n2c(CCc3c[nH]c4ccc(Br)cc34)nc3ccccc3c2=O)c1` [Example 4, 2-[2-(5-Bromoindol-3-yl)ethyl]-3-(3-isopropoxyphenyl)-4-quinazolinone], the inhibition at 10 µM in assay [1] (rat pancreas, 10 μM) was -1.4%. With `O=c1c2ccccc2nc(CCc2c[nH]c3ccccc23)n1-c1cccc(F)c1` [Example 12], the inhibition at 10 µM in assay [1] is 11%. In addition, the 50% inhibitory concentration (IC50) at Brain CCK receptor (setting [2]) turned out to be 730 ± 170 nM. For `O=c1c2ccccc2nc(CCc2c[nH]c3ccccc23)n1-c1cccc(Cl)c1` [Example 13] the same measures were 17% and 690 ± 160 nM. For `Cc1cccc(-n2c(CCc3c[nH]c4ccccc34)nc3ccccc3c2=O)c1` [Example 14] the same measures were 0.6% and 150 ± 10 nM. As to `O=c1c2ccccc2nc(CCc2c[nH]c3ccccc23)n1-c1cccc(Br)c1` [Example 15], in assay [1] (rat pancreas, 10 μM), the inhibition at 10 µM is -5.7%. For the same molecule, the IC50 on Brain CCK receptor (setting [2]) amounted to 370 ± 30 nM. In the case of `O=c1c2ccccc2nc(CCc2c[nH]c3ccc(Cl)cc23)n1-c1cccc(Br)c1` [Example 16], in assay [1] (rat pancreas, 10 μM), the inhibition at 10 µM worked out at 2%. Besides, on Brain CCK receptor (setting [2]), the half-maximal inhibitory concentration (IC50) turned out to be 190 nM. Consider `COc1cccc(-n2c(CCc3c[nH]c4ccccc34)nc3ccccc3c2=O)c1` [Example 17], for which the inhibition at 10 µM in assay [1] amounted to 16%. Moreover, the half-maximal inhibitory concentration (IC50) at Brain CCK receptor (setting [2]) came to 160 ± 30 nM. `COc1cccc(-n2c(CCc3c[nH]c4ccc(Br)cc34)nc3ccccc3c2=O)c1` [Example 20]: the inhibition at 10 µM in assay [1] (rat pancreas, 10 μM) stood at 5.3%. Turning to `CCOc1cccc(-n2c(CCc3c[nH]c4ccc(Br)cc34)nc3ccccc3c2=O)c1` [Example 23], the inhibition at 10 µM in assay [1] (rat pancreas, 10 μM) was -14%. Besides, the IC50 at Brain CCK receptor (setting [2]) stood at 34 ± 7 nM.

For `CCc1cccc(-n2c(CCc3c[nH]c4ccccc34)nc3ccccc3c2=O)c1` [Example 28], the inhibition at 10 µM in assay [1] stood at 2.6%. Moreover, on Brain CCK receptor (setting [2]), the IC50 was found to be 72 ± 1 nM. For the molecule `CCc1cccc(-n2c(CCc3c[nH]c4ccc(Cl)cc34)nc3ccccc3c2=O)c1` [Example 30], the inhibition at 10 µM in assay [1] (rat pancreas, 10 μM) was -9.1%. In addition, at Brain CCK receptor (setting [2]), the 50% inhibitory concentration (IC50) amounted to 30 nM. Turning to `CCc1cccc(-n2c(CCc3c[nH]c4ccc(OC)cc34)nc3ccccc3c2=O)c1` [Example 31], the inhibition at 10 µM in assay [1] (rat pancreas, 10 μM) is 11%. In addition, at Brain CCK receptor (setting [2]), the IC50 worked out at 22 nM. `CCCc1cc(-n2c(CCc3c[nH]c4ccc(Br)cc34)nc3ccccc3c2=O)ccc1OC` [Example 43]: the inhibition at 1 µM on Brain CCK receptor (mouse brain membranes) was determined as 85%. In the case of `CCOc1ccc(-n2c(CCc3c[nH]c4ccc(Br)cc34)nc3ccccc3c2=O)cc1C` [Example 44], the IC50 at Brain CCK receptor (setting [2]) was found to be 65 nM. Consider `COc1ccc(-n2c(CCc3c[nH]c4ccc(Br)cc34)nc3ccccc3c2=O)cc1C` [Example 45], for which, on Brain CCK receptor (setting [2]), the 50% inhibitory concentration (IC50) turned out to be 29 nM. Regarding `COc1ccc(-n2c(CCc3c[nH]c4ccc(Br)cc34)nc3ccccc3c2=O)cc1OC` [Example 46], the IC50 on Brain CCK receptor (setting [2]) worked out at 130 ± 30 nM. On the same count and under the same terms, for `CCc1ccc(-n2c(CCc3c[nH]c4ccc(Br)cc34)nc3ccccc3c2=O)cc1` [Example 47] the value was 28 ± 4 nM; for `CC(C)c1ccc(-n2c(CCc3c[nH]c4ccc(Br)cc34)nc3ccccc3c2=O)cc1` [Example 48], 37 ± 13 nM; for `CC(C)c1ccc(-n2c(CCc3c[nH]c4ccc(Cl)cc34)nc3ccccc3c2=O)cc1` [Example 49], 38 nM. Same read-out and setting: for `CCCCc1ccc(-n2c(CCc3c[nH]c4ccc(Br)cc34)nc3ccccc3c2=O)cc1` [Example 50] the value was 930 nM. Regarding `COc1ccc(-n2c(CCc3c[nH]c4ccccc34)nc3ccccc3c2=O)cc1` [Example 51], the half-maximal inhibitory concentration (IC50) at Brain CCK receptor stood at 98 ± 7 nM. As to `COc1ccc(-n2c(CCc3c[nH]c4ccc(Br)cc34)nc3ccccc3c2=O)cc1` [Example 52], the inhibition at 10 µM in assay [1] (rat pancreas, 10 μM) turned out to be 0.3%. Further, on Brain CCK receptor (setting [2]), the half-inhibitory concentration (IC50) turned out to be 31 ± 6 nM. Consider `CCOc1ccc(-n2c(CCc3c[nH]c4ccc(Br)cc34)nc3ccccc3c2=O)cc1` [Example 53], for which the half-maximal inhibitory concentration (IC50) on Brain CCK receptor (setting [2]) came out at 88 ± 10 nM. As to `CCCOc1ccc(-n2c(CCc3c[nH]c4ccc(Br)cc34)nc3ccccc3c2=O)cc1` [Example 54], the half-inhibitory concentration (IC50) at Brain CCK receptor (setting [2]) is 1200 nM. Take `CC(C)Oc1ccc(-n2c(CCc3c[nH]c4ccc(Br)cc34)nc3ccccc3c2=O)cc1` [Example 55]: the IC50 on Brain CCK receptor (setting [2]) came to 110 ± 20 nM. Consider `CCCCOc1ccc(-n2c(CCc3c[nH]c4ccc(Br)cc34)nc3ccccc3c2=O)cc1` [Example 56], for which, at Brain CCK receptor (setting [2]), the 50% inhibitory concentration (IC50) is 1100 nM.

With `CN(C)c1ccc(-n2c(CCc3c[nH]c4ccc(Br)cc34)nc3ccccc3c2=O)cc1` [Example 57], the IC50 on Brain CCK receptor (setting [2]) came out at 33 ± 6 nM. In the case of `CN(C)c1ccc(-n2c(CCc3c[nH]c4ccc(Cl)cc34)nc3ccccc3c2=O)cc1` [Example 58], at Brain CCK receptor (setting [2]), the half-inhibitory concentration (IC50) was found to be 87 nM. Regarding `CCN(CC)c1ccc(-n2c(CCc3c[nH]c4ccc(Br)cc34)nc3ccccc3c2=O)cc1` [Example 59], the IC50 on Brain CCK receptor (setting [2]) came to 47 nM.

As for `CSc1ccc(-n2c(CCc3c[nH]c4ccc(Br)cc34)nc3ccccc3c2=O)cc1` [Example 60], the 50% inhibitory concentration (IC50) at Brain CCK receptor (setting [2]) came to 37 ± 10 nM.

For `O=c1c2ccccc2nc(CCCc2c[nH]c3ccccc23)n1-c1ccccc1` [Example 62], the inhibition at 10 µM in assay [1] (rat pancreas, 10 μM) was 11%; at Brain CCK receptor (read-out: Brain % inhibition in binding assay, mouse brain membranes) it was 20%. On to `COc1cccc(-n2c(CC(C)c3c[nH]c4ccc(Br)cc34)nc3ccccc3c2=O)c1` (stereo not drawn) [Example 63], for which, on Brain CCK receptor (setting [2]), the IC50 stood at 100 nM.

`COc1cccc(-n2c(CC(Cc3ccccc3)c3c[nH]c4ccccc34)nc3ccccc3c2=O)c1` (stereo not drawn) [Example 65]: the inhibition at 10 µM at Brain CCK receptor (mouse brain membranes, read-out: Brain % inhibition in binding assay) is 70%. `CC(C)Oc1cccc(-n2c(CCc3c[nH]c4ccc(Br)cc34)nc3ccc(Cl)cc3c2=O)c1` [Example 66]: at Brain CCK receptor (mouse brain membranes), the inhibition at 1 µM was found to be 90%.
